Source: patent US10538495B2, “Modulators of indoleamine 2,3-dioxygenase” (GLAXOSMITHKLINE INTELLECTUAL PROPERTY DEVELOPMENT LIMITED, priority 2016, dated 2020)

Legend:
[1] = target: T1, indoleamine 2,3-dioxygenase (IDO1) (Homo sapiens, UniProt P14902); assay: HeLa IDOi assay (kynurenine by mass spectrometry); assay type: cell-based; set-up: human epithelial HeLa cells (CCL-2; host or cells: HeLa cells stimulated with human IFN-γ; details: IFN-γ stimulated HeLa cells, 2 days, kynurenine detected by mass spectrometry; read-out: HeLa pIC50 (converted)
Description: (§1) Brief descriptions of the cellular assays are provided following the table.
(§2) Compounds of the present invention were tested via high-throughput cellular assays utilizing detection of kynurenine via mass spectrometry and cytotoxicity as end-points. For the mass spectrometry and cytotoxicity assays, human epithelial HeLa cells (CCL-2; ATCC®, Manassas, Va.) were stimulated with human interferon-γ (IFN-γ) (Sigma-Aldrich Corporation, St. Louis, Mo.) to induce the expression of indoleamine 2,3-dioxygenase (IDO1). Compounds with IDO1 inhibitory properties decreased the amount of kynurenine produced by the cells via the tryptophan catabolic pathway. Cellular toxicity due to the effect of compound treatment was measured using CellTiter-Glo® reagent (CTG) (Promega Corporation, Madison, Wis.), which is based on luminescent detection of ATP, an indicator of metabolically active cells.
(§3) In preparation for the assays, test compounds were serially diluted 3-fold in DMSO from a typical top concentration of 5 mM and plated at 0.5 μL in 384-well, polystyrene, clear bottom, tissue culture treated plates with lids (Greiner Bio-One, Kremsmünster, Austria) to generate 11-point dose response curves. Low control wells (0% kynurenine or 100% cytotoxicity) contained either 0.5 μL of DMSO in the presence of unstimulated (−IFN-γ) HeLa cells for the mass spectrometry assay or 0.5 μL of DMSO in the absence of cells for the cytotoxicity assay, and high control wells (100% kynurenine or 0% cytotoxicity) contained 0.5 μL of DMSO in the presence of stimulated (+IFN-γ) HeLa cells for both the mass spectrometry and cytotoxicity assays.
Frozen stocks of HeLa cells were washed and recovered in DMEM high glucose medium with HEPES (Thermo Fisher Scientific, Inc., Waltham, Mass.) supplemented with 10% v/v certified fetal bovine serum (FBS) (Thermo Fisher Scientific, Inc., Waltham, Mass.), and 1× penicillin-streptomycin antibiotic solution (Thermo Fisher Scientific, Inc., Waltham, Mass.). The cells were diluted to 100,000 cells/mL in the supplemented DMEM medium. 50 μL of either the cell suspension, for the mass spectrometry assay, or medium alone, for the cytotoxicity assay, were added to the low control wells, on the previously prepared 384-well compound plates, resulting in 5,000 cells/well or 0 cells/well respectively. IFN-γ was added to the remaining cell suspension at a final concentration of 10 nM, and 50 μL of the stimulated cells were added to all remaining wells on the 384-well compound plates. The plates, with lids, were then placed in a 37° C., 5% CO2 humidified incubator for 2 days.
(§4) Following incubation, the 384-well plates were removed from the incubator and allowed to equilibrate to room temperature for 30 minutes. For the cytotoxicity assay, CellTiter-Glo® was prepared according to the manufacturer's instructions, and 10 μL were added to each plate well. After a twenty minute incubation at room temperature, luminescence was read on an EnVision® Multilabel Reader (PerkinElmer Inc., Waltham, Mass.). For the mass spectrometry assay, 10 μL of supernatant from each well of the compound-treated plates were added to 40 μL of acetonitrile, containing 10 μM of an internal standard for normalization, in 384-well, polypropylene, V-bottom plates (Greiner Bio-One, Kremsmünster, Austria) to extract the organic analytes. Following centrifugation at 2000 rpm for 10 minutes, 10 μL from each well of the acetonitrile extraction plates were added to 90 μL of sterile, distilled H2O in 384-well, polypropylene, V-bottom plates for analysis of kynurenine and the internal standard on the RapidFire 300 (Agilent Technologies, Santa Clara, Calif.) and 4000 QTRAP MS (SCIEX, Framingham, Mass.). MS data were integrated using Agilent Technologies' RapidFire Integrator software, and data were normalized for analysis as a ratio of kynurenine to the internal standard. […]

[2] = target: T1, indoleamine 2,3-dioxygenase (IDO1); assay: PBMC IDOi assay (kynurenine by mass spectrometry); assay type: cell-based; details: IFN-γ and LPS stimulated human PBMC, 2 days, kynurenine detected by mass spectrometry; read-out: PBMC pIC50 (converted)
Description: as §1
as §2, with “peripheral blood mononuclear” for “epithelial HeLa”, “(PBMC) (PB003F; AllCells®, Alameda, Calif.)” for “(CCL-2; ATCC®, Manassas, Va.)”, “Mo.) and lipopolysaccharide from Salmonella minnesota (LPS) (Invivogen, San Diego, Calif.)” for “Mo.)”
as §3, with “(−IFN-γ/−LPS) PBMCs” for “(−IFN-γ) HeLa cells”, “(+IFN-γ/+LPS) PBMCs” for “(+IFN-γ) HeLa cells”
Frozen stocks of PBMCs were washed and recovered in RPMI 1640 medium (Thermo Fisher Scientific, Inc., Waltham, Mass.) supplemented with 10% v/v heat-inactivated fetal bovine serum (FBS) (Thermo Fisher Scientific, Inc., Waltham, Mass.), and 1× penicillin-streptomycin antibiotic solution (Thermo Fisher Scientific, Inc., Waltham, Mass.). The cells were diluted to 1,000,000 cells/mL in the supplemented RPMI 1640 medium. 50 μL of either the cell suspension, for the mass spectrometry assay, or medium alone, for the cytotoxicity assay, were added to the low control wells, on the previously prepared 384-well compound plates, resulting in 50,000 cells/well or 0 cells/well respectively. IFN-γ and LPS were added to the remaining cell suspension at final concentrations of 100 ng/ml and 50 ng/ml respectively, and 50 μL of the stimulated cells were added to all remaining wells on the 384-well compound plates. The plates, with lids, were then placed in a 37° C., 5% CO2 humidified incubator for 2 days.
as §4, with “and 40” for “and 10”, “Mass.).” for “Mass.). MS data were integrated using Agilent Technologies' RapidFire Integrator software, and data were normalized for analysis as a ratio of kynurenine to the internal standard.”

T1 sequence (P14902 whole entry): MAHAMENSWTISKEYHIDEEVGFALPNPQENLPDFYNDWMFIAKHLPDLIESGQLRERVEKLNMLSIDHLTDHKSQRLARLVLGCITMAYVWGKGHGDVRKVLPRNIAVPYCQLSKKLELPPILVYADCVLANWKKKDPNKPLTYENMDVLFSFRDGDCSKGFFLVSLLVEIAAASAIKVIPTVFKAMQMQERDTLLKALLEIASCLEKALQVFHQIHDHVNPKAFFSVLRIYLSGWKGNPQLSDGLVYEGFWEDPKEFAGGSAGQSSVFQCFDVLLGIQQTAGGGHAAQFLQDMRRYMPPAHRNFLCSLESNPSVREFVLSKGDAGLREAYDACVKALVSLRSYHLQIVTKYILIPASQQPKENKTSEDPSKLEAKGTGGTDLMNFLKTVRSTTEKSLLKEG

SMILES | IC50 [1] | IC50 [2]
Cc1ccc(CC(=O)Nc2cc(-c3ccccc3-c3nn[nH]n3)ccc2SC(C)(C)C)cc1 [Example 1, N-(4-(tert-butylthio)-2′-(2H-tetrazol-5-yl)-[1,1′-biphenyl]-3-yl)-2-(p-tolyl)acetamide] | 0.0158 µM | 0.0126 µM
Cc1ccc(CC(=O)Nc2cc(-c3ccccc3C(=O)O)ccc2SC(C)(C)C)cc1 [Example 4, 4′-(tert-Butylthio)-3′-(2-(p-tolyl)acetamido)-[1,1′-biphenyl]-2-carboxylic acid] | 0.316 µM | 0.794 µM
Cc1ccc(CC(=O)Nc2cc(-c3ccccc3-c3nn[nH]n3)ccc2Sc2ccccc2)cc1 [Example 10] | 0.251 µM | 0.126 µM
Cc1ccc(NC(=O)Nc2cc(-c3ccccc3-c3nn[nH]n3)ccc2SC(C)(C)C)cc1 [Example 13, 1-(4-(tert-Butylthio)-2′-(2H-tetrazol-5-yl)-[1,1′-biphenyl]-3-yl)-3-(p-tolyl)urea] | 0.398 µM | 0.0794 µM
Cc1ccc(NC(=O)Nc2cc(-c3ccccc3C(=O)O)ccc2SC(C)(C)C)cc1 [Example 14, 4′-(tert-Butylthio)-3′-(3-(p-tolyl)ureido)-[1,1′-biphenyl]-2-carboxylic Acid] |  | 1.58 µM
Cc1ccc(CC(=O)Nc2cc(-c3ccccc3-c3nn[nH]n3)ccc2S(=O)(=O)c2ccccc2)cc1 [Example 15, N-(4-(phenylsulfonyl)-2′-(2H-tetrazol-5-yl)-[1,1′-biphenyl]-3-yl)-2-(p-tolyl)acetamide] | 2 µM | 2 µM
Cc1ccccc1CC(=O)Nc1cc(-c2ccccc2-c2nn[nH]n2)ccc1SC(C)(C)C [Example 19, N-(4-(tert-butylthio)-2′-(2H-tetrazol-5-yl)-[1,1′-biphenyl]-3-yl)-2-(o-tolyl)acetamide] | 0.0158 µM | 0.01 µM
Cc1cccc(CC(=O)Nc2cc(-c3ccccc3-c3nn[nH]n3)ccc2SC(C)(C)C)c1 [Example 20, N-(4-(tert-butylthio)-2′-(2H-tetrazol-5-yl)-[1,1′-biphenyl]-3-yl)-2-(m-tolyl)acetamide] | 0.0251 µM | 0.02 µM
CC(C)c1ccc(CC(=O)Nc2cc(-c3ccccc3-c3nn[nH]n3)ccc2SC(C)(C)C)cc1 [Example 27, N-(4-(tert-butylthio)-2′-(2H-tetrazol-5-yl)-[1,1′-biphenyl]-3-yl)-2-(4-isopropylphenyl)acetamide] | 0.00398 µM | 0.00316 µM
CC(C)(C)Sc1ccc(-c2ccccc2-c2nn[nH]n2)cc1NC(=O)Cc1ccc(Cl)cc1 [Example 34, N-(4-(tert-butylthio)-2′-(2H-tetrazol-5-yl)-[1,1′-biphenyl]-3-yl)-2-(4-chlorophenyl)acetamide] | 0.0794 µM | 0.0251 µM
Cc1ccc(OC(=O)Nc2cc(-c3ccccc3-c3nn[nH]n3)ccc2SC(C)(C)C)cc1 [Example 35, p-Tolyl (4-(tert-butylthio)-2′-(2H-tetrazol-5-yl)-[1,1′-biphenyl]-3-yl)carbamate] | > 3.16 µM | 1.58 µM
CC(C)(C)Sc1ccc(-c2ccccc2-c2nn[nH]n2)cc1NC(=O)c1ccccc1 [Example 36, N-(4-(tert-butylthio)-2′-(2H-tetrazol-5-yl)-[1,1′-biphenyl]-3-yl)benzamide] | 2.51 µM | 1.26 µM
Cc1ccc(CCC(=O)Nc2cc(-c3ccccc3-c3nn[nH]n3)ccc2SC(C)(C)C)cc1 [Example 37, N-(4-(tert-butylthio)-2′-(2H-tetrazol-5-yl)-[1,1′-biphenyl]-3-yl)-3-(p-tolyl)propanamide] | 0.794 µM | 0.251 µM
Cc1ccc(CC(=O)Nc2cc(C(C)CC(=O)O)ccc2SC(C)(C)C)cc1 (stereo not drawn) [Example 44, 3-(4-(tert-Butylthio)-3-(2-(p-tolyl)acetamido)phenyl)butanoic Acid] |  | 3.98 µM
COCn1nnc(-c2ccccc2-c2ccc(SC(C)(C)C)c(NC(=O)Cc3ccc(C)cc3)c2)n1 [Example 59, N-(4-(tert-butylthio)-2′-(2-(methoxymethyl)-2H-tetrazol-5-yl)-[1,1′-biphenyl]-3-yl)-2-(p-tolyl)acetamide] | 0.398 µM | 
COCn1nnnc1-c1ccccc1-c1ccc(SC(C)(C)C)c(NC(=O)Cc2ccc(C)cc2)c1 [Example 60, N-(4-(tert-butylthio)-2′-(1-(methoxymethyl)-1H-tetrazol-5-yl)-[1,1′-biphenyl]-3-yl)-2-(p-tolyl)acetamide] | 0.0631 µM | 
Cc1ccc(CC(=O)Nc2cc(-c3ccccc3-c3nnn(C)n3)ccc2SC(C)(C)C)cc1 [Example 61, N-(4-(tert-butylthio)-2′-(2-methyl-2H-tetrazol-5-yl)-[1,1′-biphenyl]-3-yl)-2-(p-tolyl)acetamide] | 0.631 µM | 
Cc1ccc(CC(=O)Nc2cc(-c3ccccc3-c3nnnn3C)ccc2SC(C)(C)C)cc1 [Example 62, N-(4-(tert-butylthio)-2′-(1-methyl-1H-tetrazol-5-yl)-[1,1′-biphenyl]-3-yl)-2-(p-tolyl)acetamide] | 0.501 µM | 
